Results taken from ChEMBL document CHEMBL4411274, “Recent advances of tetrazole derivatives as potential anti-tubercular and anti-malarial agents” (Eur J Med Chem, 2019).
Values after ≈ are worked out from the molar mass of the structure shown.

Legend:
Plasmodium falciparum [1] = assay: Antimalarial activity against ring-stage multidrug-resistant Plasmodium falciparum Dd2 preincubated for 6 hrs followed by compound wash and measured after 66 hrs by Giemsa-staining based light microscopic analysis; format: functional, organism-based
Plasmodium falciparum [2] = assay: Antimalarial activity against ring-stage chloroquine-susceptible Plasmodium falciparum 3D7 preincubated for 6 hrs followed by compound wash and measured after 66 hrs by Giemsa-staining based light microscopic analysis; format: functional, organism-based
[3] = tested on: Mycobacterium tuberculosis; assay: Antibacterial activity against Mycobacterium tuberculosis CNCTC My 331/88; format: functional
Mycobacterium kansasii [4] = assay: Antibacterial activity against Mycobacterium kansasii CNCTC My 235/80; format: functional
Mycobacterium kansasii [5] = assay: Antibacterial activity against Mycobacterium kansasii isolate 6509/96; format: functional
Mycobacterium avium = assay: Antibacterial activity against Mycobacterium avium CNCTC My 330/88; format: functional
[6] = tested on: Mycobacterium tuberculosis; assay: Antibacterial activity against Mycobacterium tuberculosis H37Rv by MABA; format: functional
CHO-K1 = assay: Cytotoxicity against CHOK1 cells after 24 hrs by MTT assay; format: cell-based; settings: Cricetulus griseus, CHO-K1, 24 h
Falcipain 2 = biological target: T1, Falcipain 2 (Plasmodium falciparum, UniProt Q9N6S8); assay: Inhibition of Plasmodium falciparum falcipain-2 preincubated for 30 mins followed by Z-Leu-Arg-AMC substrate addition and measured up to 15 mins by spectrofluorometric analysis
T1 sequence (Q9N6S8 whole entry): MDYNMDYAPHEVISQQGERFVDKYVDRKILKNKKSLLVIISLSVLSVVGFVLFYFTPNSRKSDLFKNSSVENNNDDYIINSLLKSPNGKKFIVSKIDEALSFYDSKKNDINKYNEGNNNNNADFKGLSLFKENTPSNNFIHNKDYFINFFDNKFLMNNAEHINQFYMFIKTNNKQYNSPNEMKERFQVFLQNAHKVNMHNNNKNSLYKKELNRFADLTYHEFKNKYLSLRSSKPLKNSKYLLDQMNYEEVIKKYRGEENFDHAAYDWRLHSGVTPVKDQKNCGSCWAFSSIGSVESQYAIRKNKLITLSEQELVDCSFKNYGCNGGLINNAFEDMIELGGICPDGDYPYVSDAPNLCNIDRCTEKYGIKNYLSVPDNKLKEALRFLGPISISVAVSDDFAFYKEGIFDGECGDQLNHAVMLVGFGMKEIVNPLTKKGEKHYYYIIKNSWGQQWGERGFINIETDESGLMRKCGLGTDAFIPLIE

[7] = biological target: T2, Cysteine protease falcipain-3 (Plasmodium falciparum, UniProt Q9NAW4); assay: Inhibition of Plasmodium falciparum falcipain-3 preincubated for 30 mins followed by Z-Leu-Arg-AMC substrate addition and measured up to 15 mins by spectrofluorometric analysis
T2 sequence (Q9NAW4 whole entry): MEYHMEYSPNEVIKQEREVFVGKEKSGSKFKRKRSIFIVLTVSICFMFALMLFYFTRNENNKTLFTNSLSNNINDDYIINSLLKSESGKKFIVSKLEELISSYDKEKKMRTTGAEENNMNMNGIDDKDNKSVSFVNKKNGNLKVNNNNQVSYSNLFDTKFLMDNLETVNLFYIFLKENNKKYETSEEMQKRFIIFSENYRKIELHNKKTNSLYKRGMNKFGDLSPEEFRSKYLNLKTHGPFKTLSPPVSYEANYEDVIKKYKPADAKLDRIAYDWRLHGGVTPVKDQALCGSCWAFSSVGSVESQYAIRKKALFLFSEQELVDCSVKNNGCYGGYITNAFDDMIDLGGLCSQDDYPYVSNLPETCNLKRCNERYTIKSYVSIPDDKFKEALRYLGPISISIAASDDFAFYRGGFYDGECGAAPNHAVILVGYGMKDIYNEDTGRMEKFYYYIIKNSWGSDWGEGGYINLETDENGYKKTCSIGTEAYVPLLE

Plasmodium falciparum [8] = assay: Antimalarial activity against Plasmodium falciparum K2 infected in human erythrocytes assessed as parasitemia after 48 hrs by YOYO-1 staining-based flow cytometric analysis; format: functional, organism-based; settings: K2, 48 h
[9] = tested on: Mycobacterium tuberculosis; assay: Antibacterial activity against Mycobacterium tuberculosis H37Rv by resazurin dye-based assay; format: functional

Work on `C[C@H]1[C@H](OC(=O)CCC(=O)O)O[C@@H]2O[C@@]3(C)CC[C@H]4[C@H](C)CC[C@@H]1[C@@]24OO3` [ARTESUNATE] yielded an IC50 (Plasmodium falciparum [1]) of 0.0046 µM and an IC50 (Plasmodium falciparum [2]) of 0.0051 µM.

For `C[C@]12CC[C@@H]3c4ccc(OCCCCCCCSc5nnnn5-c5ccc(Cl)cc5)cc4CC[C@H]3[C@@H]1CCC2=O`, the MIC [3] was no less than 500 µg/mL, the MIC (Mycobacterium kansasii [4]) was no less than 500 µg/mL and the MIC (Mycobacterium kansasii [5]) was no less than 500 µg/mL. For the same compound, the MIC (Mycobacterium avium) was no less than 500 µg/mL.

`C[C@]12CC[C@@H]3c4ccc(OCCCCCCCSc5nnnn5-c5ccc(Cl)c(Cl)c5)cc4CC[C@H]3[C@@H]1CCC2=O` showed an MIC [3] of no less than 500 µg/mL, an MIC (Mycobacterium kansasii [4]) of no less than 500 µg/mL and an MIC (Mycobacterium kansasii [5]) of no less than 500 µg/mL. The MIC (Mycobacterium avium) was no less than 500 µg/mL.

Compound `COc1cc(-c2nnnn2S(=O)(=O)c2ccc(Br)cc2)ccc1OCC(O)(Cn1cncn1)c1ccc(Cl)cc1Cl` (stereo not given) has an MIC [6] of 1.56 to 12.5 µg/mL (≈ 2.29 to 18.3 µM) and an IC50 (CHO-K1) greater than 150 µg/mL.

`Cc1cc(NC(=O)Cn2nnc(-c3ccccc3NC(=O)c3ccccc3F)n2)no1` showed an IC50 (Falcipain 2) of 6.67 to 43.9 µM, an IC50 [7] of 6.67 to 43.9 µM and an IC50 (Plasmodium falciparum [8]) greater than 10 µM.

Work on `C[C@H]1[C@@H](O)O[C@@H]2O[C@@]3(C)CC[C@H]4[C@H](C)CC[C@@H]1[C@@]24OO3` [ARTENIMOL] yielded an IC50 (Plasmodium falciparum [1]) of 0.0042 µM and an IC50 (Plasmodium falciparum [2]) of 0.0047 µM.

Work on `CC(C(=O)N1c2ccccc2CCc2ccccc21)n1nnc(-c2ccc(N3CCOCC3)cc2)n1` (stereo not given) yielded an IC50 (Falcipain 2) of 6.67 to 43.9 µM, an IC50 [7] of 6.67 to 43.9 µM and an IC50 (Plasmodium falciparum [8]) greater than 10 µM.

For `O=C(Cn1nnc(-c2ccccc2)n1)NNC(=O)c1ccco1`, the IC50 (Falcipain 2) was 6.67 to 43.9 µM, the IC50 [7] was 6.67 to 43.9 µM and the IC50 (Plasmodium falciparum [8]) was greater than 10 µM.

With `COc1cc(-c2nnnn2S(=O)(=O)c2ccc(F)cc2)ccc1OCC(O)(Cn1cncn1)c1ccc(F)cc1F` (stereo not given) the MIC [6] was 6.25 µg/mL (≈ 10.6 µM) and the IC50 (CHO-K1) was greater than 150 µg/mL.

With `COc1cc(-c2nnnn2S(=O)(=O)c2ccccc2)ccc1OCC(O)(Cn1cncn1)c1ccc(F)cc1F` (stereo not given) the MIC [6] was 3.12 µg/mL (≈ 5.48 µM) and the IC50 (CHO-K1) was greater than 150 µg/mL.

For `Sc1nnnn1-c1ccc(Cl)cc1`, the MIC [3] was 250 to 500 µg/mL (≈ 1180 to 2350 µM), the MIC (Mycobacterium kansasii [4]) was 250 to 500 µg/mL (≈ 1180 to 2350 µM) and the MIC (Mycobacterium kansasii [5]) was 250 to 500 µg/mL (≈ 1180 to 2350 µM). It also gave an MIC (Mycobacterium avium) of 250 to 500 µg/mL (≈ 1180 to 2350 µM).

`Sc1nnnn1-c1ccccc1` was tested, and the MIC [3] was 250 to 500 µg/mL (≈ 1400 to 2810 µM), the MIC (Mycobacterium kansasii [4]) was 250 to 500 µg/mL (≈ 1400 to 2810 µM) and the MIC (Mycobacterium kansasii [5]) was 250 to 500 µg/mL (≈ 1400 to 2810 µM). For the same compound, the MIC (Mycobacterium avium) was 250 to 500 µg/mL (≈ 1400 to 2810 µM).

For `Cc1ccc(-n2nnnc2SCc2ccccc2)cc1`, the MIC [3] was 8 to 250 µg/mL (≈ 28.3 to 885 µM), the MIC (Mycobacterium kansasii [4]) was 8 to 250 µg/mL (≈ 28.3 to 885 µM) and the MIC (Mycobacterium kansasii [5]) was 8 to 250 µg/mL (≈ 28.3 to 885 µM). For the same compound, the MIC (Mycobacterium avium) was 8 to 250 µg/mL (≈ 28.3 to 885 µM).

For `COc1ccc(C2C(Cl)C(=O)N2NC(=O)Cn2nnnc2-c2ccccc2)cc1` (stereo not given), the MIC [9] was 0.156 µg/mL (≈ 0.378 µM).

`COc1cc(-c2nnnn2S(=O)(=O)c2ccc(Br)s2)ccc1OCC(O)(Cn1cncn1)c1ccc(F)cc1F` (stereo not given) gave an MIC [6] of 1.56 µg/mL (≈ 2.38 µM) and an IC50 (CHO-K1) greater than 150 µg/mL.

Work on `COc1ccc(S(=O)(=O)n2nnnc2-c2ccc(OCC(O)(Cn3cncn3)c3ccc(Cl)cc3Cl)c(OC)c2)cc1` (stereo not given) yielded an MIC [6] of 1.56 to 12.5 µg/mL (≈ 2.47 to 19.8 µM) and an IC50 (CHO-K1) greater than 150 µg/mL.

For `Cc1ccc(C2C(Cl)C(=O)N2NC(=O)Cn2nnnc2-c2ccccc2)cc1` (stereo not given), the MIC [9] was greater than 6.25 µg/mL.

In the case of `COc1ccc(NC(=O)Cn2nnc(-c3ccccc3NS(=O)(=O)c3ccc(NC(C)=O)cc3)n2)cc1`, the IC50 (Falcipain 2) is reported as 6.67 to 43.9 µM, the IC50 [7] is reported as 6.67 to 43.9 µM and the IC50 (Plasmodium falciparum [8]) is reported as greater than 10 µM.

Work on `Cc1ccc(-n2nnnc2S)cc1` yielded an MIC [3] of 250 to 500 µg/mL (≈ 1300 to 2600 µM), an MIC (Mycobacterium kansasii [4]) of 250 to 500 µg/mL (≈ 1300 to 2600 µM) and an MIC (Mycobacterium kansasii [5]) of 250 to 500 µg/mL (≈ 1300 to 2600 µM). The MIC (Mycobacterium avium) was 250 to 500 µg/mL (≈ 1300 to 2600 µM).

`COc1ccc(S(=O)(=O)n2nnnc2-c2ccc(OCC(O)(Cn3cncn3)c3ccc(F)cc3F)c(OC)c2)cc1` (stereo not given) gave an MIC [6] of 1.56 µg/mL (≈ 2.6 µM) and an IC50 (CHO-K1) greater than 150 µg/mL.

`O=C(Cn1nnnc1-c1ccccc1)NN1C(=O)C(Cl)C1c1ccccc1` (stereo not given) was tested, and the MIC [9] was greater than 6.25 µg/mL.

`c1ccc(CSc2nnnn2-c2ccccc2)cc1` showed an MIC [3] of 8 to 250 µg/mL (≈ 29.8 to 932 µM), an MIC (Mycobacterium kansasii [4]) of 8 to 250 µg/mL (≈ 29.8 to 932 µM) and an MIC (Mycobacterium kansasii [5]) of 8 to 250 µg/mL (≈ 29.8 to 932 µM). The MIC (Mycobacterium avium) was 8 to 250 µg/mL (≈ 29.8 to 932 µM).

`Cc1ccc(-n2nnnc2SCCCCCCCOc2ccc3c(c2)CC[C@@H]2[C@@H]3CC[C@]3(C)C(=O)CC[C@@H]23)cc1` showed an MIC [3] of no less than 500 µg/mL, an MIC (Mycobacterium kansasii [4]) of no less than 500 µg/mL and an MIC (Mycobacterium kansasii [5]) of no less than 500 µg/mL. The MIC (Mycobacterium avium) was no less than 500 µg/mL.

With `COc1cc(-c2nnnn2S(=O)(=O)c2ccc([N+](=O)[O-])cc2)ccc1OCC(O)(Cn1cncn1)c1ccc(F)cc1F` (stereo not given) the MIC [6] was 12.5 µg/mL (≈ 20.3 µM) and the IC50 (CHO-K1) was greater than 150 µg/mL.
